The text below walks through data of US5391540A, “Substituted pyridine compounds” (Rohm and Haas Company, priority 1993, dated 1995).

What all share (assay): Pre-emergent herbicidal activity (Table A)
Assay type in all cases: in vivo

For one experiment, the system named is Annual Bluegrass. As to conditions: pre-emergence, Anbg, 11.2 kg/ha, 10-14 days, read-out: herbicidal rating (% inhibition). Summed up: (§1)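 Seeds were sown on compacted topsoil and covered with soil into which test compound (in acetone or water carrier) had been mixed at 11.2 kg/ha. Pans were kept watered on a greenhouse bench, and percent inhibition was scored as a rating about 10-14 days (usually 11) after treatment.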

The next experiment concerns Seedling Johnsongrass. The settings on record: Sorghum halepense, pre-emergence, Sejg, 11.2 kg/ha, 10-14 days, read-out: herbicidal rating (% inhibition). Summed up: as §1
A further experiment deals with Indian Mustard. As to conditions: Brassica juncea, pre-emergence, Inmu, 11.2 kg/ha, 10-14 days, read-out: herbicidal rating (% inhibition). The method, boiled down:
as §1

A further experiment concerns Wild Buckwheat. As to conditions: Fallopia convolvulus, pre-emergence, Wibw, 11.2 kg/ha, 10-14 days, read-out: herbicidal rating (% inhibition). The method, boiled down:
as §1

The subject of the next experiment is Barnyardgrass. As to conditions: Echinochloa crus-galli, pre-emergence, Bygr, 11.2 kg/ha, 10-14 days, read-out: herbicidal rating (% inhibition). Summed up: (§2)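 Seeds or perennial propagules set on compacted topsoil, then covered with soil mixed with a known amount of test compound applied in acetone or water carrier. Ratings assigned on a scale based on percent inhibition of each species.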

The subject of a further experiment is Morningglory. As to conditions: Ipomoea, pre-emergence, Mogl, 11.2 kg/ha, 10-14 days, read-out: herbicidal rating (% inhibition). Summed up: as §2
A further experiment has as its system Yellow Nutsedge. As to conditions: Cyperus, pre-emergence, Yens, 11.2 kg/ha, 10-14 days, read-out: herbicidal rating (% inhibition). Summed up: as §2
A further experiment deals with Velvetleaf. The settings on record: Abutilon theophrasti, pre-emergence, Vele, 11.2 kg/ha, 10-14 days, read-out: herbicidal rating (% inhibition). Summed up: as §2
Another experiment concerns Downy Brome. The settings on record: Bromus tectorum, pre-emergence, Dobr, 11.2 kg/ha, 10-14 days, read-out: herbicidal rating (% inhibition). Summed up: as §2
A further experiment deals with Cocklebur. As to conditions: Xanthium strumarium, pre-emergence, Cobu, 11.2 kg/ha, 10-14 days, read-out: herbicidal rating (% inhibition). Summed up:
as §2

Each structure is given as a SMILES string.

As to `COC(=O)c1c(OC)nc(C(F)(F)F)c(C2OCCO2)c1CC(C)C` [Compound 109, 3-pyridinecarboxylic acid, 5-(1,3-dioxolan-2-yl)-2-methoxy-4-(2-methylpropyl)-6-(trifluoromethyl)-, methyl ester], the inhibition at 11200 g/ha with Annual Bluegrass, in the experiment with Seedling Johnsongrass, with Indian Mustard, in the experiment on Wild Buckwheat, in the experiment with Barnyardgrass and in the experiment with Morningglory was 75 to 100% in each case. For the same compound, the inhibition at 11200 g/ha in the experiment with Yellow Nutsedge, in the experiment with Velvetleaf, with Downy Brome and in the experiment with Cocklebur was 75 to 100% throughout.

On to `COC(=O)c1c(OC)nc(C(F)(F)F)c(C(=O)OCC(F)(F)F)c1CC(C)C` [Compound 112, 3,5-pyridinedicarboxylic acid, 2-methoxy-4-(2-methylpropyl)-6-(trifluoromethyl)-, 3-methyl 5-(2,2,2-trifluoroethyl) ester], for which the inhibition (usually the drop in the measured response relative to a control, in per cent) at 11200 g/ha with Annual Bluegrass was in the range of 75 to 100%; in the experiment with Seedling Johnsongrass it was 75 to 100%; in the experiment with Indian Mustard, 75 to 100%; in the experiment on Wild Buckwheat, 75 to 100%; in the experiment with Barnyardgrass, 75 to 100%; in the experiment with Morningglory it was 50 to 74%. The inhibition at 11200 g/ha in the experiment with Yellow Nutsedge was 0 to 24%; with Velvetleaf, 75 to 100%; with Downy Brome, 75 to 100%; in the experiment with Cocklebur it was 0 to 24%.

Turning to `COC(=O)c1c(OC)nc(C(F)(F)F)c(-c2nccs2)c1CC(C)C` [Compound 129, 3-pyridinecarboxylic acid, 2-methoxy-4-(2-methylpropyl)-5-(2-thiazolyl)-6-(trifluoromethyl)-, methyl ester], the inhibition at 11200 g/ha in the experiment with Annual Bluegrass, in the experiment on Seedling Johnsongrass, in the experiment with Indian Mustard, with Wild Buckwheat, in the experiment with Barnyardgrass and in the experiment with Morningglory was 75 to 100% throughout. In addition, the inhibition at 11200 g/ha in the experiment with Yellow Nutsedge is 75 to 100%; in the experiment on Velvetleaf, 75 to 100%; in the experiment with Downy Brome, 75 to 100%; in the experiment on Cocklebur, 50 to 74%.

Consider `COC(=O)c1c(OC)nc(C(F)(F)F)c(C2OCCO2)c1CC1CC1` [Compound 118, 3-pyridinecarboxylic acid, 4-(cyclopropylmethyl)-5-(1,3-dioxolan-2-yl)-2-methoxy-6-(trifluoromethyl)-, methyl ester], for which the inhibition at 11200 g/ha in the experiment on Annual Bluegrass, in the experiment with Seedling Johnsongrass, with Indian Mustard, with Wild Buckwheat, in the experiment with Barnyardgrass and with Morningglory was 75 to 100% in each case. Further, the inhibition at 11200 g/ha in the experiment on Yellow Nutsedge lay within 75 to 100%; with Velvetleaf, 75 to 100%; in the experiment on Downy Brome, 75 to 100%; with Cocklebur, 0 to 24%.

As for `COC(=O)c1c(OC)nc(C(F)(F)F)c(C(=O)N2CCCO2)c1CC(C)C` [Compound 132, 3-pyridinecarboxylic acid, 5-(2-isoxazolidinecarbonyl)-2-methoxy-4-(2-methylpropyl)-6-(trifluoromethyl)-, methyl ester], the inhibition at 11200 g/ha in the experiment on Annual Bluegrass was 75 to 100%; in the experiment with Seedling Johnsongrass it was 75 to 100%; in the experiment with Indian Mustard, 75 to 100%; with Wild Buckwheat it was 75 to 100%; in the experiment with Barnyardgrass, 75 to 100%; in the experiment with Morningglory, 50 to 74%. Also, the inhibition at 11200 g/ha in the experiment with Yellow Nutsedge is 0 to 24%; in the experiment with Velvetleaf it was 75 to 100%; in the experiment with Downy Brome, 75 to 100%; in the experiment with Cocklebur, 0 to 24%.

Turning to `COC(=O)c1c(OC)nc(C(F)(F)F)c(C=O)c1C1CCC1` [Compound 139, 3-pyridinecarboxylic acid, 4-cyclobuty1-5-formy1-2-methoxy-6-(trifluoromethyl)-, methyl ester], the inhibition at 11200 g/ha was 75 to 100% in the experiment on Annual Bluegrass; 75 to 100% in the experiment on Seedling Johnsongrass; 75 to 100% with Indian Mustard; 75 to 100% in the experiment on Wild Buckwheat; 75 to 100% with Barnyardgrass; 50 to 74% with Morningglory. The inhibition at 11200 g/ha in the experiment on Yellow Nutsedge lay within 0 to 24%; with Velvetleaf it was 75 to 100%; with Downy Brome, 75 to 100%; in the experiment with Cocklebur, 0 to 24%.

In the case of `COC(=O)c1c(OC)nc(C(F)(F)F)c(C(=O)n2cc(Cl)cn2)c1CC(C)C` [Compound 104], the inhibition at 11200 g/ha with Annual Bluegrass lay in the range of 75 to 100%; in the experiment on Seedling Johnsongrass it was 75 to 100%; in the experiment with Indian Mustard, 75 to 100%; in the experiment on Wild Buckwheat, 50 to 74%; in the experiment with Barnyardgrass, 75 to 100%; in the experiment with Morningglory, 50 to 74%. In addition, the inhibition at 11200 g/ha with Yellow Nutsedge was in the range of 0 to 24%; with Velvetleaf it was 50 to 74%; with Downy Brome, 50 to 74%; in the experiment on Cocklebur, 0 to 24%.

Take `COC(=O)c1c(OC)nc(C(F)(F)F)c(C2=NCCCO2)c1CC(C)C` [Compound 99]: the inhibition at 11200 g/ha with Annual Bluegrass was in the range of 75 to 100%; in the experiment on Seedling Johnsongrass, 75 to 100%; in the experiment on Indian Mustard it was 75 to 100%; in the experiment with Wild Buckwheat, 25 to 49%; in the experiment on Barnyardgrass, 75 to 100%; in the experiment on Morningglory, 50 to 74%. The inhibition at 11200 g/ha with Yellow Nutsedge lay in the range of 0 to 24%; with Velvetleaf it was 75 to 100%; in the experiment with Downy Brome, 75 to 100%; in the experiment with Cocklebur it was 0 to 24%.

Take `COC(=O)c1c(OC)nc(C(F)(F)F)c(C2OCCS2)c1CC(C)C` (stereo not drawn) [Compound 122, 3-pyridinecarboxylic acid, 2-methoxy-4-(2-methylpropyl)-5-(1,3-oxathiolan-2-yl)-6-(trifluoromethyl)-, methyl ester]: the inhibition at 11200 g/ha in the experiment on Annual Bluegrass, in the experiment with Seedling Johnsongrass, in the experiment on Indian Mustard, with Wild Buckwheat, in the experiment with Barnyardgrass and with Morningglory was 75 to 100% each time. In addition, the inhibition at 11200 g/ha with Yellow Nutsedge is 50 to 74%; in the experiment with Velvetleaf it was 75 to 100%; in the experiment on Downy Brome it was 75 to 100%; in the experiment on Cocklebur it was 0 to 24%.

On to `COC(=O)c1c(OC)nc(C(F)(F)F)c(N=C2CCCO2)c1CC(C)C` [Compound 121, 3-pyridinecarboxylic acid, 5-[(dihydro-2(3H)-furanylidene)amino]-2-methoxy-4-(2-methylpropyl)-6-(trifluoromethyl)-, methyl ester], for which the inhibition at 11200 g/ha lay within 75 to 100% with Annual Bluegrass; 75 to 100% in the experiment on Seedling Johnsongrass; 75 to 100% in the experiment on Indian Mustard; 75 to 100% with Wild Buckwheat; 75 to 100% with Barnyardgrass; 50 to 74% in the experiment on Morningglory. Besides, the inhibition at 11200 g/ha with Yellow Nutsedge lay within 50 to 74%; in the experiment with Velvetleaf it was 75 to 100%; in the experiment with Downy Brome, 75 to 100%; in the experiment with Cocklebur it was 75 to 100%.

As to `COC(=O)c1c(OC)nc(C(F)(F)F)c(-c2cnco2)c1CC(C)C` [Compound 114, 3-pyridinecarboxylic acid, 2-methoxy-4-(2-methylpropyl)-5-(5-oxazolyl)-6-(trifluoromethyl)-, methyl ester], the inhibition at 11200 g/ha was in the range of 75 to 100% in the experiment with Annual Bluegrass; 75 to 100% with Seedling Johnsongrass; 75 to 100% with Indian Mustard; 75 to 100% with Wild Buckwheat; 75 to 100% with Barnyardgrass; 50 to 74% with Morningglory. The inhibition at 11200 g/ha was 25 to 49% in the experiment on Yellow Nutsedge, 75 to 100% in the experiment on Velvetleaf, 75 to 100% with Downy Brome and 0 to 24% with Cocklebur.

Regarding `COC(=O)c1c(OC)nc(C(F)(F)F)c(C=O)c1CC1CC1` [Compound 115, 3-pyridinecarboxylic acid, 4-(cyclopropylmethyl)-5-formy1-2-methoxy-6-(trifluoromethyl)-, methyl ester], the inhibition at 11200 g/ha was 75 to 100% with Annual Bluegrass; 75 to 100% with Seedling Johnsongrass; 75 to 100% in the experiment with Indian Mustard; 50 to 74% in the experiment with Wild Buckwheat; 75 to 100% with Barnyardgrass; 50 to 74% in the experiment on Morningglory. Further, the inhibition at 11200 g/ha lay in the range of 25 to 49% in the experiment with Yellow Nutsedge, 50 to 74% with Velvetleaf, 75 to 100% with Downy Brome and 0 to 24% in the experiment on Cocklebur.
